Assay results taken from patent publication US6906061B2, “Pharmaceutical agent containing Rho kinase inhibitor” (Mitsubishi Pharma Corporation, priority 1996, dated 2005).

Tested on: ddY mice
Experiment: Acute toxicity in ddY mice
Assay type: in vivo
Settings: intraperitoneal administration at 30 mg/kg, monitored for 5 days
Excerpt: The compound 109.2HCl and compound 143.2HCl.H2O were respectively administered intraperitoneally to ddY mice and the mice were monitored for 5 days.

CC(N)[C@H]1CC[C@H](C(=O)Nc2ccnc3[nH]ccc23)CC1 (single isomer, unassigned; (+)) [Compound 109.2HCl, (+)-trans-N-(1H-pyrrolo[2,3-b]pyridin-4-yl)-4-(1-aminoethyl)cyclohexanecarboxamide]
Acute toxicity (death): did not cause death
